In US20240336574A1 (LATIGO BIOTHERAPEUTICS, INC., priority 2021, published 2024):
Read-outs that look alike come from different tables or passages of the source.

Target: T1, recombinant human NaV1.8 stably transfected HEK cells (Homo sapiens, UniProt Q9Y5Y9)
T1 construct: expressed in transfected cells; host or cells: HEK cells, stably transfected
Test: Compound profiling on NaV1.8, human NaV1.8 cell line, SyncroPatch384PE automated patch clamp assay (Example 102, first set of compounds, Table 16)
Format: cell-based
Details: human NaV1.8 HEK cells, Table 16 (first set of compounds)
Summary of the method: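 IC50s come from two read-outs: resting-state block (P1, 10 mV step from −120 mV) and inactivated-state block (P2, after 10 s at −40 mV), scaled between DMSO and 250 μM tetracaine. Compounds (20–0.001 μM final, 1:3 steps) were applied for 5 min, 15 s sweeps. Cells kept at 30 °C the day before.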

[1] = inactivated state block (P2 measurement), read-out: P2IC50
[2] = resting state block (P1 measurement), read-out: P1IC50

T1 sequence (Q9Y5Y9 whole entry): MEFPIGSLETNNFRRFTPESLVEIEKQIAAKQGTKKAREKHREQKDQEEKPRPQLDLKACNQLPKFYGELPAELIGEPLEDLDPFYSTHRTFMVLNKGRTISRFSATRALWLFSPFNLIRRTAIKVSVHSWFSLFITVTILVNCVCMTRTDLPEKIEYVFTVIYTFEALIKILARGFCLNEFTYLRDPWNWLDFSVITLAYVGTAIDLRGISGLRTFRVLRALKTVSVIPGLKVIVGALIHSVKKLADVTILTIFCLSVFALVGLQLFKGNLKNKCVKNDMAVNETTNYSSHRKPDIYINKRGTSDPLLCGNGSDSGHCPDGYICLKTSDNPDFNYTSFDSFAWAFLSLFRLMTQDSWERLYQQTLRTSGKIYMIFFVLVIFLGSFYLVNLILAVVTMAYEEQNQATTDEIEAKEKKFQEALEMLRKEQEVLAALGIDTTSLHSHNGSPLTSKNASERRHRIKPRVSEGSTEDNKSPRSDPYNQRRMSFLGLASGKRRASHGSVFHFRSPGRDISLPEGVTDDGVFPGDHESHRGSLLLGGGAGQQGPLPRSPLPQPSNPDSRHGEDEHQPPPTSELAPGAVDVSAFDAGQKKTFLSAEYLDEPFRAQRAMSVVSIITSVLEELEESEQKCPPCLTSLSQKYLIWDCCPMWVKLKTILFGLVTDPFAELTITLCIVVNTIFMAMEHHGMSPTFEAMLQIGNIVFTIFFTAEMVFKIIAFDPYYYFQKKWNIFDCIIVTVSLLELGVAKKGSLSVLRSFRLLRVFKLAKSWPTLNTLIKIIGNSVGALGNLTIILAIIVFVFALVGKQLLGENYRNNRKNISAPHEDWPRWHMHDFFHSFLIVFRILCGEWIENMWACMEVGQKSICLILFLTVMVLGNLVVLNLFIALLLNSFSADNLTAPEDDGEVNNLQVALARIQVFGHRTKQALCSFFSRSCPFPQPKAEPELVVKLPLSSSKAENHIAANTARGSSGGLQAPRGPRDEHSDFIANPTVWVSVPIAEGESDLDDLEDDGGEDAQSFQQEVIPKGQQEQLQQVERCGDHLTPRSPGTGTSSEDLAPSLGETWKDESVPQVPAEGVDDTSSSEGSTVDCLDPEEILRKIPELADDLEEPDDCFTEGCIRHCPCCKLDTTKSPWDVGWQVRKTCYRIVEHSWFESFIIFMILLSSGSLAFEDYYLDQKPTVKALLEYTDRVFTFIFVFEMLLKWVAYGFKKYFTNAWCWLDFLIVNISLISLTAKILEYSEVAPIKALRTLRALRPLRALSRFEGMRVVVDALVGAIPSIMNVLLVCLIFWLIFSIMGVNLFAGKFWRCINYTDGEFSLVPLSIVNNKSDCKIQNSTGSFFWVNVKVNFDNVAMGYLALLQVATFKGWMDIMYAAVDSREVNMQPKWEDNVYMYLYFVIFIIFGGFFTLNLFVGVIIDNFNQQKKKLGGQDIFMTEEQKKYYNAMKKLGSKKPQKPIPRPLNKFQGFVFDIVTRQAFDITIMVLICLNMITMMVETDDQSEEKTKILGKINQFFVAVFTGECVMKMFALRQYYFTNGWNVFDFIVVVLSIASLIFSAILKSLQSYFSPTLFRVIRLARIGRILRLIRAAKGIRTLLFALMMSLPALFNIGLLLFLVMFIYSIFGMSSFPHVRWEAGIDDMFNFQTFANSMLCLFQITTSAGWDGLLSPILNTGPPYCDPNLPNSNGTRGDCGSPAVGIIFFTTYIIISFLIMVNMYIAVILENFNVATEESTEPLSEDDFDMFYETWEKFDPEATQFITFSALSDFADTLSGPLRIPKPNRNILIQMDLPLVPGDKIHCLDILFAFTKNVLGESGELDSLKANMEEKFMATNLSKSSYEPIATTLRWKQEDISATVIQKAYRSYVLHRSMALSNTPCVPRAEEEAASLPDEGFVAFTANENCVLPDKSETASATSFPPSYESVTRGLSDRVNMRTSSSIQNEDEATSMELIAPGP

IC50 [1] [nM] | IC50 [2] [nM] | SMILES
≤ 20 | ≤ 20 | Cc1cc(F)ccc1Oc1ncc(C(F)(F)F)cc1C(=O)Nc1cccc([S@@](C)(=O)=NC(=O)CN(C)C(=O)OC(C)(C)C)c1 [Compound 1719, tert-butyl (R)-(2-(((3-(2-(4-fluoro-2-methylphenoxy)-5-(trifluoromethyl)nicotinamido)phenyl)(methyl)(oxo)-λ^6-sulfaneylidene)amino)-2-oxoethyl)(methyl)carbamate]
200 to 500 | 200 to 500 | Cn1cc(Oc2ncc(C(F)(F)F)cc2C(=O)Nc2cccc(S(C)(=O)=O)c2)cn1 [Compound 1610]
≤ 20 | ≤ 20 | Cc1ccc(Oc2ncc(C(F)(F)F)cc2C(=O)Nc2cccc(S(C)(=N)=O)c2)c(OC(F)F)n1 (stereo not shown) [Compound 1690]
200 to 500 | 200 to 500 | CCOc1ncc(C(F)(F)F)cc1C(=O)Nc1cccc(S(C)(=O)=O)c1 [Compound 1600]
200 to 500 | 200 to 500 | CS(=N)(=O)c1cccc(NC(=O)c2cc(C(F)(F)F)cnc2Oc2ccc(-c3ccccc3)cc2)c1 (stereo not shown) [Compound 1585]
≤ 20 | ≤ 20 | CNCC(=O)N=[S@](C)(=O)c1cccc(NC(=O)c2cc(C(F)(F)F)cnc2Oc2ccc(F)cc2C)c1 [Compound 1720, (R)-2-(4-fluoro-2-methylphenoxy)-N-(3-(S-methyl-N-(methylglycyl)sulfonimidoyl)phenyl)-5-(trifluoromethyl)nicotinamide]
≤ 20 | ≤ 20 | COc1cc(C#N)ccc1Oc1nc(C(F)(F)F)cc(C)c1C(=O)Nc1cccc([S@](C)(=N)=O)c1 [Compound 1730, (R)-2-(4-cyano-2-methoxyphenoxy)-4-methyl-N-(3-(S-methylsulfonimidoyl)phenyl)-6-(trifluoromethyl)nicotinamide]
≤ 20 | ≤ 20 | COc1nc(Br)ccc1Oc1ncc(C(F)(F)F)cc1C(=O)Nc1cccc(S(C)(=N)=O)c1 (stereo not shown) [Compound 1685]
 | ≤ 20 | Cc1c(Oc2ncc(C(F)(F)F)cc2C(=O)Nc2cccc(S(C)(=N)=O)c2)ccc(OC(F)(F)F)c1F (single isomer, unassigned) [Compound 1715]
40 to 200 | 40 to 200 | COc1cc(C#N)ccc1Oc1ncc(C(F)(F)F)cc1C(=O)Nc1ccc[n+]([O-])c1 [Compound 1702]
200 to 500 | 200 to 500 | CS(=O)(=O)c1cccc(NC(=O)c2cc(C(F)(F)F)cnc2Oc2ccn3ccnc3c2)c1 [Compound 1597]
≤ 20 | ≤ 20 | COc1cc(F)ccc1Oc1ncc(C(F)(F)F)cc1C(=O)Nc1cccc(S(C)(=O)=O)c1 [Compound 1575]
40 to 200 | 20 to 40 | CS(=N)(=O)c1cccc(NC(=O)c2cc(C(F)(F)F)cnc2Oc2ccc(C(F)(F)F)cc2)c1 (stereo not shown) [Compound 1564, N-[3-(methylsulfonimidoyl)phenyl]-5-(trifluoromethyl)-2-[4-(trifluoromethyl)phenoxy]pyridine-3-carboxamide]
40 to 200 | 40 to 200 | CS(=N)(=O)c1cccc(NC(=O)c2cc(C(F)(F)F)cnc2Oc2ccc(OC3CC3)cc2)c1 (stereo not shown) [Compound 1588]

Second part, the compound before the results:

SMILES | IC50 [1] [nM] | IC50 [2] [nM]
COc1cc(C#N)ccc1Oc1nnc(-c2ccnnc2)c(C)c1C(=O)Nc1cccc(S(C)(=N)=O)c1 (stereo not shown) [Compound 1456, 3-(4-cyano-2-methoxy-phenoxy)-5-methyl-N-[3-(methylsulfonimidoyl)phenyl]-6-pyridazin-4-yl-pyridazine-4-carboxamide] | 200 to 500 | 200 to 500
Cc1ccc(Oc2nnc(C(F)(F)F)c(C)c2C(=O)Nc2cccc(S(C)(=O)=O)c2)c(C)n1 [Compound 1420] | 200 to 500 | 200 to 500
NC(=O)c1ccc(NC(=O)c2cc(C(F)(F)F)cnc2Oc2ccc(C(F)F)nc2)cc1 [Compound 1676] | 200 to 500 | 200 to 500
COc1cc(C#N)ccc1Oc1nnc(C(F)(F)F)c(C)c1C(=O)Nc1cccc(C(=O)N2CCNCC2)c1 [Compound 1438, 3-(4-cyano-2-methoxy-phenoxy)-5-methyl-N-[3-(piperazine-1-carbonyl)phenyl]-6-(trifluoromethyl)pyridazine-4-carboxamide] | 40 to 200 | 40 to 200
Cc1c(C(F)(F)F)nnc(Oc2c(F)cc(OC(F)(F)F)cc2F)c1C(=O)Nc1cccc(S(C)(=N)=O)c1 (stereo not shown) [Compound 1514, 3-[2,6-difluoro-4-(trifluoromethoxy)phenoxy]-N-{3-[imino(methyl)oxo-λ^6-sulfanyl]phenyl}-5-methyl-6-(trifluoromethyl)pyridazine-4-carboxamide] | 40 to 200 | 40 to 200
Cc1cc(C#N)ccc1Oc1nnc(C(F)(F)F)c(C)c1C(=O)Nc1cccc(S(C)(=O)=O)c1 [Compound 1465, 3-(4-cyano-2-methylphenoxy)-N-(3-methanesulfonylphenyl)-5-methyl-6-(trifluoromethyl)pyridazine-4-carboxamide] | ≤ 20 | ≤ 20
Cc1ccc(Oc2nnc(C(F)(F)F)c(C)c2C(=O)Nc2cccc(S(C)(=N)=O)c2)c(C)n1 (single isomer, unassigned) [Compound 1484, 3-[(2,6-dimethylpyridin-3-yl)oxy]-N-{3-[imino(methyl)oxo-λ^6-sulfanyl]phenyl}-5-methyl-6-(trifluoromethyl)pyridazine-4-carboxamide] | 200 to 500 | 200 to 500
NC(=O)c1ccc(NC(=O)c2cc(C(F)(F)F)cnc2OC2CC3C(C2)C3(F)F)cc1 (stereo not shown) [Compound 1673] | 200 to 500 | 200 to 500
COc1ccc(-c2nnc(Oc3ccc(C#N)cc3OC)c(C(=O)Nc3cccc(S(C)(=N)=O)c3)c2C)cc1 (stereo not shown) [Compound 1454, 3-(4-cyano-2-methoxy-phenoxy)-6-(4-methoxyphenyl)-5-methyl-N-[3-(methylsulfonimidoyl)phenyl]pyridazine-4-carboxamide] | ≤ 20 | ≤ 20
Cc1c(C(F)(F)F)nnc(Oc2ccc(C(N)=O)cc2)c1C(=O)Nc1cccc(S(C)(=N)=O)c1 (stereo not shown) [Compound 1513, 3-(4-carbamoylphenoxy)-N-{3-[imino(methyl)oxo-λ^6-sulfanyl]phenyl}-5-methyl-6-(trifluoromethyl)pyridazine-4-carboxamide] | 200 to 500 | 200 to 500
COc1cc(C#N)ccc1Oc1nnc(-c2ccc(C#N)cc2)c(C)c1C(=O)Nc1cccc([S@](C)(=N)=O)c1 [Compound 1531, (R)-3-(4-cyano-2-methoxyphenoxy)-6-(4-cyanophenyl)-5-methyl-N-(3-(S-methylsulfonimidoyl)phenyl)pyridazine-4-carboxamide] | 40 to 200 | 40 to 200
COc1cc(C#N)ccc1Oc1nnc(-c2ccccc2)c(C)c1C(=O)Nc1cccc(S(C)(=N)=O)c1 (stereo not shown) [Compound 1436, 3-(4-cyano-2-methoxyphenoxy)-5-methyl-N-(3-(S-methylsulfonimidoyl)phenyl)-6-phenylpyridazine-4-carboxamide] | 40 to 200 | 20 to 40
CO/N=C(\C)c1cccc(NC(=O)c2c(Oc3ccc(C#N)cc3OC)nnc(C(F)(F)F)c2C)c1 [Compound 1545, 3-(4-cyano-2-methoxy-phenoxy)-N-[3-[(E)-N-methoxy-C-methyl-carbonimidoyl]phenyl]-5-methyl-6-(trifluoromethyl)pyridazine-4-carboxamide] | 200 to 500 | 200 to 500
Cc1nc(C(F)(F)F)ccc1Oc1nnc(C(F)(F)F)c(C)c1C(=O)Nc1cccc(S(C)(=O)=O)c1 [Compound 1468, N-(3-methanesulfonylphenyl)-5-methyl-3-{[2-methyl-6-(trifluoromethyl)pyridin-3-yl]oxy}-6-(trifluoromethyl)pyridazine-4-carboxamide] | ≤ 20 | ≤ 20
Cc1cc(F)ccc1Oc1nnc(C#N)c(C)c1C(=O)Nc1cccc(S(C)(=N)=O)c1 (stereo not shown) [Compound 1432, 6-cyano-3-(4-fluoro-2-methyl-phenoxy)-5-methyl-N-[3-(methylsulfonimidoyl)phenyl]pyridazine-4-carboxamide] | 200 to 500 | 200 to 500
CC(C)Oc1ccc(Oc2ncc(C(F)(F)F)cc2C(=O)Nc2ccc(-c3ncc[nH]3)cc2)c(F)c1F [Compound 1649] | 200 to 500 | 200 to 500
COc1cc(C#N)ccc1Oc1nnc(-c2ccc(C(F)F)cc2)c(C)c1C(=O)Nc1cccc([S@@](C)(=N)=O)c1 [Compound 1533, 3-(4-cyano-2-methoxyphenoxy)-6-[4-(difluoromethyl)phenyl]-N-{3-[(S)-imino(methyl)oxo-λ^6-sulfanyl]phenyl}-5-methylpyridazine-4-carboxamide] | 20 to 40 | 20 to 40
COc1cc(C#N)ccc1Oc1nnc(-c2nccs2)c(C)c1C(=O)Nc1cccc(S(C)(=N)=O)c1 (stereo not shown) [Compound 1463, 3-(4-cyano-2-methoxy-phenoxy)-5-methyl-N-[3-(methylsulfonimidoyl)phenyl]-6-thiazol-2-yl-pyridazine-4-carboxamide] | ≤ 20 | ≤ 20
Cc1c(C(F)(F)F)nnc(Oc2ccc(OC3CCC3)c(F)c2F)c1C(=O)Nc1cccc(S(C)(=N)=O)c1 (single isomer, unassigned) [Compound 1494, 3-(4-cyclobutoxy-2,3-difluorophenoxy)-N-{3-[imino(methyl)oxo-λ^6-sulfanyl]phenyl}-5-methyl-6-(trifluoromethyl)pyridazine-4-carboxamide] | 20 to 40 | ≤ 20
COc1ccc(-c2nnc(Oc3ccc(C#N)cc3OC)c(C(=O)Nc3cccc([S@](C)(=N)=O)c3)c2C)cn1 [Compound 1733, (R)-3-(4-cyano-2-methoxyphenoxy)-6-(6-methoxypyridin-3-yl)-5-methyl-N-(3-(S-methylsulfonimidoyl)phenyl)pyridazine-4-carboxamide] | 40 to 200 | 200 to 500
